# According to patent US20050118188A1, “Pharmaceutical composition for immunization against AIDS” (Aventis Pasteur, S.A., priority 2000, published 2005):
# Test system: female BALB/c By J Ico mice
# Conditions: mouse, in vivo
smiles,measurement,value
"CC(C)CCC[C@@H](C)[C@H]1CC[C@H]2[C@@H]3CC=C4C[C@@H](OC(=O)NCCN(C)C)CC[C@]4(C)[C@H]3CC[C@]12C.Cl [DCchol, DC-Chol hydrochloride]",Adjuvant effect on local IgA responses (in words),marked adjuvant effect
same,Adjuvant effect on serum anti-gp160 antibodies (in words),good adjuvant
same,Factor by which IgA normalized specific activities (NSA) were multiplied compared to gp160 alone,12
